PubChem BioAssay (NCI)
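Exposure lasted 48 hours, with cells grown in 96-well plates and compounds tested at five concentrations. The concentration for full growth arrest is given as TGI.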

How the values were obtained:
Test in all cases: DTP human tumour cell line panel, 48 h
NCI-H226 lung = test system: NCI-H226 lung
NCI-H23 lung = test system: NCI-H23 lung
SW-620 colon = test system: SW-620 colon
XF 498 CNS = test system: XF 498 CNS
SNB-75 CNS = test system: SNB-75 CNS
OVCAR-5 ovarian = test system: OVCAR-5 ovarian
HCT-15 colon = test system: HCT-15 colon
RXF 393 renal = test system: RXF 393 renal
RXF-631 renal = test system: RXF-631 renal
UACC-257 melanoma = test system: UACC-257 melanoma
A549 NSCLC = test system: A549 NSCLC
DMS 114 small cell lung = test system: DMS 114 small cell lung
MALME-3M melanoma = test system: MALME-3M melanoma
HOP-92 NSCLC = test system: HOP-92 NSCLC
SR leukemia = test system: SR leukemia
HOP-18 NSCLC = test system: HOP-18 NSCLC
A498 renal = test system: A498 renal
KM20L2 colon = test system: KM20L2 colon
HT29 colon = test system: HT29 colon
SNB-19 CNS = test system: SNB-19 CNS
SNB-78 CNS = test system: SNB-78 CNS
EKVX NSCLC = test system: EKVX NSCLC
HCC-2998 colon = test system: HCC-2998 colon
K-562 leukemia = test system: K-562 leukemia
SF-295 CNS = test system: SF-295 CNS
IGROV1 ovarian = test system: IGROV1 ovarian
OVCAR-8 ovarian = test system: OVCAR-8 ovarian
UACC-62 melanoma = test system: UACC-62 melanoma
SN12C renal = test system: SN12C renal
UO-31 renal = test system: UO-31 renal
MOLT-4 leukemia = test system: MOLT-4 leukemia
LOX IMVI melanoma = test system: LOX IMVI melanoma
SK-MEL-2 melanoma = test system: SK-MEL-2 melanoma
OVCAR-3 ovarian = test system: OVCAR-3 ovarian
CCRF-CEM leukemia = test system: CCRF-CEM leukemia
SF-539 CNS = test system: SF-539 CNS
SK-MEL-28 melanoma = test system: SK-MEL-28 melanoma
786-0 renal = test system: 786-0 renal
DLD-1 colon = test system: DLD-1 colon
CAKI-1 renal = test system: CAKI-1 renal
COLO 205 colon = test system: COLO 205 colon
RPMI-8226 leukemia = test system: RPMI-8226 leukemia
KM12 colon = test system: KM12 colon
OVCAR-4 ovarian = test system: OVCAR-4 ovarian
DMS 273 small cell lung = test system: DMS 273 small cell lung
M19-MEL melanoma = test system: M19-MEL melanoma
U251 CNS = test system: U251 CNS
HCT-116 colon = test system: HCT-116 colon
HL-60(TB) leukemia = test system: HL-60(TB) leukemia
SK-OV-3 ovarian = test system: SK-OV-3 ovarian
LXFL 529 NSCLC = test system: LXFL 529 NSCLC
SF-268 CNS = test system: SF-268 CNS
HOP-62 NSCLC = test system: HOP-62 NSCLC
M14 melanoma = test system: M14 melanoma
NCI-H460 lung = test system: NCI-H460 lung
NCI-H522 lung = test system: NCI-H522 lung
ACHN renal = test system: ACHN renal
TK-10 renal = test system: TK-10 renal
SK-MEL-5 melanoma = test system: SK-MEL-5 melanoma
HS 578T breast = test system: HS 578T breast
MDA-N = test system: MDA-N
DU-145 prostate = test system: DU-145 prostate
NCI/ADR-RES ovarian = test system: NCI/ADR-RES ovarian
PC-3 prostate = test system: PC-3 prostate
MDA-MB-231 breast = test system: MDA-MB-231 breast
MDA-MB-435 = test system: MDA-MB-435
T-47D breast = test system: T-47D breast
MCF7 breast = test system: MCF7 breast
BT-549 breast = test system: BT-549 breast

## COc1ccc2c(c1)[n+]([O-])c(/C(C)=N/NC(=O)CC#N)c[n+]2[O-]
NCI-H226 lung
  TGI: > 100 µM
NCI-H23 lung
  TGI: > 100 µM
SW-620 colon
  TGI: 25.8 µM
XF 498 CNS
  TGI: > 100 µM
SNB-75 CNS
  TGI: > 100 µM
OVCAR-5 ovarian
  TGI: > 100 µM
HCT-15 colon
  TGI: > 100 µM
RXF 393 renal
  TGI: > 100 µM
RXF-631 renal
  TGI: > 100 µM
UACC-257 melanoma
  TGI: > 100 µM
A549 NSCLC
  TGI: > 100 µM
DMS 114 small cell lung
  TGI: > 100 µM
MALME-3M melanoma
  TGI: > 100 µM
HOP-92 NSCLC
  TGI: > 100 µM
SR leukemia
  TGI: > 100 µM
HOP-18 NSCLC
  TGI: > 100 µM
A498 renal
  TGI: > 100 µM
KM20L2 colon
  TGI: > 100 µM
HT29 colon
  TGI: > 100 µM
SNB-19 CNS
  TGI: > 100 µM
SNB-78 CNS
  TGI: > 100 µM
EKVX NSCLC
  TGI: > 100 µM
HCC-2998 colon
  TGI: > 100 µM
K-562 leukemia
  TGI: > 100 µM
SF-295 CNS
  TGI: > 100 µM
IGROV1 ovarian
  TGI: > 100 µM
OVCAR-8 ovarian
  TGI: > 100 µM
UACC-62 melanoma
  TGI: > 100 µM
SN12C renal
  TGI: > 100 µM
UO-31 renal
  TGI: > 100 µM
MOLT-4 leukemia
  TGI: > 100 µM
LOX IMVI melanoma
  TGI: > 100 µM
SK-MEL-2 melanoma
  TGI: > 100 µM
OVCAR-3 ovarian
  TGI: > 100 µM
CCRF-CEM leukemia
  TGI: > 100 µM
SF-539 CNS
  TGI: > 100 µM
SK-MEL-28 melanoma
  TGI: > 100 µM
786-0 renal
  TGI: > 100 µM
DLD-1 colon
  TGI: > 100 µM
CAKI-1 renal
  TGI: > 100 µM
COLO 205 colon
  TGI: > 100 µM
RPMI-8226 leukemia
  TGI: > 100 µM
KM12 colon
  TGI: > 100 µM
OVCAR-4 ovarian
  TGI: > 100 µM
DMS 273 small cell lung
  TGI: > 100 µM
M19-MEL melanoma
  TGI: > 100 µM
U251 CNS
  TGI: > 100 µM
HCT-116 colon
  TGI: > 100 µM
HL-60(TB) leukemia
  TGI: > 100 µM
SK-OV-3 ovarian
  TGI: > 100 µM
LXFL 529 NSCLC
  TGI: > 100 µM
SF-268 CNS
  TGI: > 100 µM
HOP-62 NSCLC
  TGI: > 100 µM
M14 melanoma
  TGI: > 100 µM
NCI-H460 lung
  TGI: > 100 µM
NCI-H522 lung
  TGI: > 100 µM
ACHN renal
  TGI: > 100 µM
TK-10 renal
  TGI: > 100 µM
SK-MEL-5 melanoma
  TGI: > 100 µM

## O=Cc1ccc(-c2cccs2)s1
NCI-H226 lung
  TGI: 4.85 µM
NCI-H23 lung
  TGI: > 68.1 µM
SW-620 colon
  TGI: > 100 µM
XF 498 CNS
  TGI: 11.5 µM
SNB-75 CNS
  TGI: > 100 µM
OVCAR-5 ovarian
  TGI: 69.7 µM
HCT-15 colon
  TGI: > 100 µM
RXF 393 renal
  TGI: 65.3 µM
RXF-631 renal
  TGI: 12.9 µM
HS 578T breast
  TGI: 98 µM
UACC-257 melanoma
  TGI: 15.1 µM
A549 NSCLC
  TGI: > 100 µM
DMS 114 small cell lung
  TGI: > 100 µM
MALME-3M melanoma
  TGI: > 100 µM
MDA-N
  TGI: > 100 µM
HOP-92 NSCLC
  TGI: > 68.1 µM
SR leukemia
  TGI: > 100 µM
HOP-18 NSCLC
  TGI: > 100 µM
A498 renal
  TGI: 5.21 µM
DU-145 prostate
  TGI: > 100 µM
KM20L2 colon
  TGI: > 100 µM
NCI/ADR-RES ovarian
  TGI: > 100 µM
HT29 colon
  TGI: > 68.1 µM
SNB-19 CNS
  TGI: > 100 µM
SNB-78 CNS
  TGI: > 100 µM
EKVX NSCLC
  TGI: > 96.6 µM
HCC-2998 colon
  TGI: > 100 µM
K-562 leukemia
  TGI: 46.4 µM
SF-295 CNS
  TGI: > 100 µM
IGROV1 ovarian
  TGI: 47.4 µM
OVCAR-8 ovarian
  TGI: > 100 µM
UACC-62 melanoma
  TGI: 4.42 µM
SN12C renal
  TGI: > 100 µM
UO-31 renal
  TGI: > 100 µM
MOLT-4 leukemia
  TGI: > 100 µM
LOX IMVI melanoma
  TGI: > 100 µM
SK-MEL-2 melanoma
  TGI: > 100 µM
OVCAR-3 ovarian
  TGI: 58.1 µM
PC-3 prostate
  TGI: > 100 µM
CCRF-CEM leukemia
  TGI: > 100 µM
SF-539 CNS
  TGI: > 100 µM
SK-MEL-28 melanoma
  TGI: > 100 µM
786-0 renal
  TGI: > 100 µM
DLD-1 colon
  TGI: > 74.9 µM
MDA-MB-231 breast
  TGI: > 100 µM
CAKI-1 renal
  TGI: 49.7 µM
COLO 205 colon
  TGI: 54.8 µM
RPMI-8226 leukemia
  TGI: > 100 µM
MDA-MB-435
  TGI: > 100 µM
KM12 colon
  TGI: > 100 µM
OVCAR-4 ovarian
  TGI: > 77 µM
T-47D breast
  TGI: > 100 µM
DMS 273 small cell lung
  TGI: > 100 µM
M19-MEL melanoma
  TGI: > 100 µM
U251 CNS
  TGI: > 93.8 µM
HCT-116 colon
  TGI: > 100 µM
HL-60(TB) leukemia
  TGI: > 68.1 µM
SK-OV-3 ovarian
  TGI: > 100 µM
LXFL 529 NSCLC
  TGI: 4.51 µM
SF-268 CNS
  TGI: > 100 µM
MCF7 breast
  TGI: 17.6 µM
HOP-62 NSCLC
  TGI: > 100 µM
M14 melanoma
  TGI: > 100 µM
NCI-H460 lung
  TGI: > 92.4 µM
NCI-H522 lung
  TGI: > 100 µM
ACHN renal
  TGI: > 100 µM
TK-10 renal
  TGI: 11.7 µM
SK-MEL-5 melanoma
  TGI: > 88.9 µM
BT-549 breast
  TGI: > 100 µM
